# ChEMBL document CHEMBL3526096, “Species differences in biliary clearance and possible relevance of hepatic uptake and efflux transporters involvement” (Drug Metab Dispos, 2013)
# What was measured:
# [1] = Drug excretion in human assessed as compound excreted into bile at 1 nmol/l, iv after 8 hrs; type: ADME, organism-based; conditions: read-out: Drug excretion
# Rattus norvegicus [2] = assay: Unbound biliary clearance in iv dosed Sprague-Dawley rat; type: ADME, organism-based, Bile; conditions: in vivo
# Canis familiaris [3] = assay: Total biliary clearance in iv dosed dog; type: ADME, organism-based, Canis lupus familiaris, Bile; conditions: in vivo
# Canis familiaris [4] = assay: Unbound biliary clearance in iv dosed dog; type: ADME, organism-based, Canis lupus familiaris, Bile; conditions: in vivo
# [5] = Drug excretion in iv dosed dog assessed as compound excreted into bile; type: ADME, organism-based, Canis lupus familiaris; conditions: read-out: Drug excretion
# Rattus norvegicus [6] = assay: Total biliary clearance in iv dosed Sprague-Dawley rat; type: ADME, organism-based, Bile; conditions: in vivo
# Homo sapiens [7] = assay: Total biliary clearance in human at 1 nmol/l, iv after 8 hrs by duodenal perfusion method; type: ADME, organism-based, Bile; conditions: in vivo
# Homo sapiens [8] = assay: Unbound biliary clearance in human at 1 nmol/l, iv after 8 hrs; type: ADME, organism-based, Bile; conditions: in vivo
# [9] = Drug excretion in iv dosed Sprague-Dawley rat assessed as compound excreted into bile; type: ADME, organism-based; conditions: read-out: Drug excretion
# [10] = Drug excretion in iv dosed rat assessed as compound excreted into bile; type: ADME, organism-based; conditions: read-out: Drug excretion
# [11] = Drug excretion in human assessed as compound excreted into bile at 2 gm, iv after 24 hrs by T-tube method; type: ADME, organism-based; conditions: read-out: Drug excretion
# Rattus norvegicus [12] = assay: Total biliary clearance in Sprague-Dawley rat at 300 mg/kg, iv; type: ADME, organism-based, Bile; design: dose 300 mg/kg, route intravenous; conditions: in vivo
# [13] = Drug excretion in human assessed as compound excreted into bile at 1 gm, iv after 8 hrs by T-tube method; type: ADME, organism-based; conditions: read-out: Drug excretion
# Rattus norvegicus [14] = assay: Unbound biliary clearance in Sprague-Dawley rat at 300 mg/kg, iv; type: ADME, organism-based, Bile; design: dose 300 mg/kg, route intravenous; conditions: in vivo
# Homo sapiens [15] = assay: Total biliary clearance in human at 1 gm, iv after 8 hrs by T-tube method; type: ADME, organism-based, Bile; conditions: in vivo
# Homo sapiens [16] = assay: Unbound biliary clearance in human at 1 gm, iv after 8 hrs by T-tube method; type: ADME, organism-based, Bile; conditions: in vivo
# [17] = Drug excretion in Sprague-Dawley rat assessed as compound excreted into bile at 300 mg/kg, iv; type: ADME, organism-based; design: dose 300 mg/kg, route intravenous; conditions: read-out: Drug excretion
# [18] = Drug excretion in human assessed as compound excreted into bile at 50 mg, iv after 24 hrs by T-tube method; type: ADME, organism-based; conditions: read-out: Drug excretion
# Rattus norvegicus [19] = assay: Unbound biliary clearance in iv dosed rat; type: ADME, organism-based, Bile; conditions: in vivo
# [20] = Drug excretion in human assessed as compound excreted into bile at 200 mg, po after 24 hrs by T-tube method; type: ADME, organism-based; conditions: read-out: Drug excretion
# Homo sapiens [21] = assay: Unbound biliary clearance in human at 200 mg, po after 24 hrs by T-tube method; type: ADME, organism-based, Bile; conditions: in vivo
# Homo sapiens [22] = assay: Total biliary clearance in human at 200 mg, po after 24 hrs by T-tube method; type: ADME, organism-based, Bile; conditions: in vivo
# Rattus norvegicus [23] = assay: Total biliary clearance in iv dosed rat; type: ADME, organism-based, Bile; conditions: in vivo
# Canis familiaris [24] = assay: Total biliary clearance in beagle dog at 20 mg/kg, iv; type: ADME, organism-based, Canis lupus familiaris, Bile; design: dose 20 mg/kg, route intravenous; conditions: in vivo
# [25] = Drug excretion in Sprague-Dawley rat assessed as compound excreted into bile at 20 mg/kg, iv; type: ADME, organism-based; design: dose 20 mg/kg, route intravenous; conditions: read-out: Drug excretion
# Rattus norvegicus [26] = assay: Unbound biliary clearance in Sprague-Dawley rat at 20 mg/kg, iv; type: ADME, organism-based, Bile; design: dose 20 mg/kg, route intravenous; conditions: in vivo
# Canis familiaris [27] = assay: Unbound biliary clearance in beagle dog at 20 mg/kg, iv; type: ADME, organism-based, Canis lupus familiaris, Bile; design: dose 20 mg/kg, route intravenous; conditions: in vivo
# [28] = Drug excretion in beagle dog assessed as compound excreted into bile at 20 mg/kg, iv; type: ADME, organism-based, Canis lupus familiaris; design: dose 20 mg/kg, route intravenous; conditions: read-out: Drug excretion
# Homo sapiens [29] = assay: Unbound biliary clearance in human at 1 gm, iv after 24 hrs by T-tube method; type: ADME, organism-based, Bile; conditions: in vivo
# Rattus norvegicus [30] = assay: Total biliary clearance in Sprague-Dawley rat at 20 mg/kg, iv; type: ADME, organism-based, Bile; design: dose 20 mg/kg, route intravenous; conditions: in vivo
# [31] = Drug excretion in human assessed as compound excreted into bile at 1 gm, iv after 24 hrs by T-tube method; type: ADME, organism-based; conditions: read-out: Drug excretion
# Homo sapiens [32] = assay: Total biliary clearance in human at 1 gm, iv after 24 hrs by T-tube method; type: ADME, organism-based, Bile; conditions: in vivo
# Homo sapiens [33] = assay: Unbound biliary clearance in iv dosed human after 72 hrs by T-tube method; type: ADME, organism-based, Bile; conditions: in vivo
# [34] = Drug excretion in iv dosed human assessed as compound excreted into bile after 72 hrs by T-tube method; type: ADME, organism-based; conditions: read-out: Drug excretion
# Homo sapiens [35] = assay: Total biliary clearance in iv dosed human after 72 hrs by T-tube method; type: ADME, organism-based, Bile; conditions: in vivo
# [36] = Drug excretion in human assessed as compound excreted into bile; type: ADME; conditions: read-out: Drug excretion
# Rattus norvegicus [37] = assay: Unbound biliary clearance in iv dosed Wistar rat; type: ADME, organism-based, Bile; conditions: in vivo
# Homo sapiens [38] = assay: Unbound biliary clearance in iv dosed human after 8 hrs by T-tube method; type: ADME, organism-based, Bile; conditions: in vivo
# Rattus norvegicus [39] = assay: Total biliary clearance in iv dosed Wistar rat; type: ADME, organism-based, Bile; conditions: in vivo
# [40] = Drug excretion in iv dosed human assessed as compound excreted into bile after 8 hrs by T-tube method; type: ADME, organism-based; conditions: read-out: Drug excretion
# Homo sapiens [41] = assay: Total biliary clearance in iv dosed human after 8 hrs by T-tube method; type: ADME, organism-based, Bile; conditions: in vivo
# [42] = Drug excretion in iv dosed Wistar rat assessed as compound excreted into bile; type: ADME, organism-based; conditions: read-out: Drug excretion
# Homo sapiens [43] = assay: Unbound biliary clearance in iv dosed human after 7 hrs by duodenal perfusion method; type: ADME, organism-based, Bile; conditions: in vivo
# [44] = Drug excretion in iv dosed human assessed as compound excreted into bile after 7 hrs by duodenal perfusion method; type: ADME, organism-based; conditions: read-out: Drug excretion
# Homo sapiens [45] = assay: Total biliary clearance in iv dosed human after 7 hrs by duodenal perfusion method; type: ADME, organism-based, Bile; conditions: in vivo
smiles,measurement,setting,value
C[C@H]1O[C@@H](O[C@H]2[C@@H](O)C[C@H](O[C@H]3[C@@H](O)C[C@H](O[C@H]4CC[C@@]5(C)[C@H](CC[C@@H]6[C@@H]5C[C@@H](O)[C@]5(C)[C@@H](C7=CC(=O)OC7)CC[C@]65O)C4)O[C@@H]3C)O[C@@H]2C)C[C@H](O)[C@@H]1O [DIGOXIN],dose excreted at 8 h,[1],41%
same,CL free,Rattus norvegicus [2],4.329 mL/min/kg
same,CL,Canis familiaris [3],1.313 mL/min/kg
same,CL free,Canis familiaris [4],2.68 mL/min/kg
same,dose excreted,[5],7%
same,CL,Rattus norvegicus [6],3.03 mL/min/kg
same,CL,Homo sapiens [7],1.595 mL/min/kg
same,CL free,Homo sapiens [8],2.279 mL/min/kg
same,dose excreted,[9],31%
CCN1CCN(C(=O)N[C@@H](C(=O)N[C@@H]2C(=O)N3C(C(=O)O)=C(CSc4nnnn4C)CS[C@H]23)c2ccc(O)cc2)C(=O)C1=O [CEFOPERAZONE],dose excreted,[10],86%
same,dose excreted at 24 h,[11],12%
CO[C@@]1(NC(=O)C(C(=O)O)c2ccc(O)cc2)C(=O)N2C(C(=O)O)=C(CSc3nnnn3C)CO[C@@H]21 (stereo partly drawn) [MOXALACTAM],CL,Rattus norvegicus [12],2.19 mL/min/kg
same,dose excreted at 8 h,[13],0.5%
same,CL free,Rattus norvegicus [14],4.294 mL/min/kg
same,CL,Homo sapiens [15],0.003 mL/min/kg
same,CL free,Homo sapiens [16],0.008 mL/min/kg
same,dose excreted,[17],25%
CNC(=C[N+](=O)[O-])NCCSCc1ccc(CN(C)C)o1 [RANITIDINE],dose excreted,[10],5%
same,dose excreted at 24 h,[18],1.5%
C=CC1=C(C(=O)O)N2C(=O)[C@@H](NC(=O)/C(=N\OCC(=O)O)c3csc(N)n3)[C@H]2SC1 [CEFIXIME],dose excreted,[10],41%
same,CL free,Rattus norvegicus [19],7.143 mL/min/kg
same,dose excreted at 24 h,[20],11%
same,CL free,Homo sapiens [21],0.452 mL/min/kg
same,CL,Homo sapiens [22],0.14 mL/min/kg
same,CL,Rattus norvegicus [23],1 mL/min/kg
Cc1cc(O)c(C(=O)N[C@@H](C(=O)N[C@@H]2C(=O)N3C(C(=O)O)=C(CSc4nnnn4C)CS[C@H]23)c2ccc(O)cc2)cn1 [CEFPIRAMIDE],CL,Canis familiaris [24],0.979 mL/min/kg
same,dose excreted,[25],58%
same,CL free,Rattus norvegicus [26],9.667 mL/min/kg
same,CL free,Canis familiaris [27],1.399 mL/min/kg
same,dose excreted,[28],19%
same,CL free,Homo sapiens [29],1 mL/min/kg
same,CL,Rattus norvegicus [30],5.22 mL/min/kg
same,dose excreted at 24 h,[31],28%
same,CL,Homo sapiens [32],0.04 mL/min/kg
CC[C@]1(O)C[C@H]2CN(CCc3c([nH]c4ccccc34)[C@@](C(=O)OC)(c3cc4c(cc3OC)N(C=O)[C@H]3[C@@](O)(C(=O)OC)[C@H](OC(C)=O)[C@]5(CC)C=CCN6CC[C@]43[C@@H]65)C2)C1 [VINCRISTINE],CL free,Rattus norvegicus [2],84.87 mL/min/kg
same,CL free,Homo sapiens [33],0.523 mL/min/kg
same,CL,Rattus norvegicus [6],33.1 mL/min/kg
same,dose excreted at 72 h,[34],10%
same,CL,Homo sapiens [35],0.209 mL/min/kg
same,dose excreted,[9],43%
N=C(N)N1CCC[C@@H](CNC(=O)C[C@H](NS(=O)(=O)c2ccc3ccccc3c2)C(=O)N(CC(=O)O)C2CC2)C1 [NAPSAGATRAN ANHYDROUS],dose excreted,[10],61%
same,dose excreted,[36],60%
same,dose excreted,[5],97%
O=C([O-])Cc1ccccc1Nc1c(Cl)cccc1Cl.[Na+] [DICLOFENAC SODIUM],CL free,Rattus norvegicus [37],94.44 mL/min/kg
same,CL free,Homo sapiens [38],8.4 mL/min/kg
same,CL,Rattus norvegicus [39],0.85 mL/min/kg
same,dose excreted at 8 h,[40],1%
same,CL,Homo sapiens [41],0.042 mL/min/kg
same,dose excreted,[42],5%
CO[C@@]1(NC(=O)C2SC(=C(C(N)=O)C(=O)O)S2)C(=O)N2C(C(=O)O)=C(CSc3nnnn3C)CS[C@@H]21 (stereo partly drawn) [CEFOTETAN],CL,Canis familiaris [3],0.696 mL/min/kg
same,dose excreted,[10],48%
same,CL free,Canis familiaris [4],1.141 mL/min/kg
same,dose excreted,[5],17%
same,CL free,Rattus norvegicus [19],8.771 mL/min/kg
same,CL free,Homo sapiens [43],0.32 mL/min/kg
same,CL,Rattus norvegicus [23],6.14 mL/min/kg
same,dose excreted at 7 h,[44],11%
same,CL,Homo sapiens [45],0.048 mL/min/kg
